The values that follow come from patent US20230147196A1, “MITOCHONDRIAL DYSFUNCTION IMPROVING AGENT” (priority 2020, published 2023).

One test has as its system neural cells. Kind of test: Mitochondrial dysfunction caused by Complex I inhibitor rotenone in neural cells. The class given is cell-based. Conditions: summary statement on the respiratory chain inhibitor tests in neural cells. The procedure:
Effects of an MKH derivative and a PKH derivative to mitochondrial dysfunctions caused by Complex I inhibitor rotenone ([…] Complex II inhibitor (3-nitro propionic acid (3-NP)), Complex III inhibitor (antimycin A), and a depolarizing agent (carbonylcyanide-m-chlorophenylhydrazone, CCCP) in neural cells were evaluated. The effects were evaluated with cell death (viability measurement with cell titer blue), inhibition of ATP production (ATP measurement with cell titer glo), and membrane potential reduction (JC-1 staining: depolarization (green), hyperpolarization (red)).

The test system of test [1] is hippocampus-derived neurons. In words: Neuronopathy model: single neuron-astrocyte coculture treated with Aβ peptide (Aβ25-35), Sholl analysis of dendrites and axons. The class given is cell-based, ICR mouse. The conditions noted are these: for neuropathy of nerve axons (branches and elongation, Tau antibody staining, Sholl analysis) / neuropathy of nerve dendrites (branches and elongation, MAP2 antibody staining, Sholl analysis): Aβ25-35 1 μM, test compound 0.3 μM, exposed for three days, FIGS. 2 and 3; for neurotoxicity caused by Aβ: primary neurons, low concentration of 0.3 μM, summary statement. As to the method: In a neuronopathy model due to Aβ peptide of which a single neuron-astrocyte coculture sample is treated with Aβ peptide, an improvement effect in neurodegeneration of a MKH derivative was evaluated. Since mitochondrial affinity of the derivative and reconvertibility to MKH are expected affect the MKH delivery by an MKH derivative, a cationic derivative (MKH-DMG) presumed to have a high affinity, an anionic derivative (MKH-SUC) having a high intracellular reconversionability, and an oxidant of MKH (MK-4) used in clinical study were evaluated (Chem. 7).
After culturing (2 weeks) astrocytes isolated from the cerebral cortex of 0- to 1-day-old ICR mouse, regions were divided in dots on a slide glass and cultured. After culturing for one more week, hippocampus-derived neurons of 0- to 1-day-old ICR mouse were seeded and cocultured. From day 1 of seeding neuron, Aβ25-35 (1 μM) and a test compound (0.3 μM) were exposed for three days, and morphological change of neurons was observed. Dendrites (MAP2 antibody) and axons (Tau antibody) of nerves were stained by immunostaining and analyzed. Dendrites and axons were evaluated for changes in branches and elongation of dendrites and axons by Sholl analysis method.

For the compound `CC(C)=CCC/C(C)=C/CC/C(C)=C/CC/C(C)=C/Cc1c(C)c(OC(=O)CN(C)C)c2ccccc2c1OC(=O)CN(C)C` [MKH-DMG], in the test with neural cells, the “mitochondrial function (respiratory chain) damage / mitochondrial dysfunction (membrane potential reduced mitochondria)” value is “can improve”. In test [1], the “neuropathy of nerve axons (branches and elongation, Tau antibody staining, Sholl analysis)” value (from here on “neuropathy of nerve axons”) is listed as “significantly improved”; the “neuropathy of nerve dendrites (branches and elongation, MAP2 antibody staining, Sholl analysis)” value (“neuropathy of nerve dendrites” below) is recorded as “significantly improved”; the “neurotoxicity caused by Aβ” value is “can improve”.

As to `CC(C)=CCC/C(C)=C/CC/C(C)=C/CC/C(C)=C/Cc1c(C)c(OC(=O)CCC(=O)O)c2ccccc2c1OC(=O)CCC(=O)O` [MKH-SUC], the “mitochondrial function (respiratory chain) damage / mitochondrial dysfunction (membrane potential reduced mitochondria)” value with neural cells is “can improve”. Moreover, in test [1], the “neuropathy of nerve axons” value is “significantly improved”; the “neuropathy of nerve dendrites” value is “significantly improved”; the “neurotoxicity caused by Aβ” value was “can improve”.

As to “Menaquinone-4 [MK-4, reference compound]”, in test [1], the “neuropathy of nerve axons” value was “No improvement effect”; the “neuropathy of nerve dendrites” value is “No improvement effect”.
